# What was measured:
# [1] = test system: adult male and female patients with osteoporosis; test: Efficacy study in osteoporosis patients treated with an antiresorptive agent (denosumab); type: in vivo, human; conditions: for incidence of hypocalcemia and severity of secondary hyperparathyroidism: once stable dosing has been achieved, denosumab-treated
# [2] = test system: adult female patients with breast cancer; test: Efficacy study in breast cancer patients treated with denosumab; type: in vivo, human; conditions: for incidence of hypocalcemia and severity of secondary hyperparathyroidism: once stable dosing has been achieved, denosumab-treated
# [3] = test system: adult patients diagnosed with metastases in bone originating from breast or prostate cancer; type: in vivo, human
# Description: At the start of the study, all patients have plasma PTH greater than 70 pg/mL as evidence of SHPT, serum calcium less than 9.8 mg/dL, spot urine Ca:Cr ratio≦0.25 (≦250 mg/g creatinine) and an estimated glomerular filtration rate greater than 15 mL/min/1.73 m^2. […] Denosumab or zoledronic acid are administered according to the typical standard of care for each patient's condition.
# The 52-week study consists of a 40 week dose escalation phase followed by a 12-week maintenance phase. At the end of the maintenance phase, there is a two-week follow up phase. At the start of the study, all patients receive an initial daily dose of 30 mcg 25-hydroxyvitamin D3, which is increased at four-week intervals over the course of the dose escalation phase up to a maximum daily dose of 300 mcg. The daily dose achieved by the end of the dose escalation study is the daily dose administered during the maintenance phase.
# Blood samples are collected at 2-week intervals for monitoring serum levels of calcium and phosphorus. Samples are collected at 4-week intervals for monitoring plasma levels of PTH and PTHrP and serum total 25-hydroxyvitamin D, 24,25-dihydroxyvitamin D3, calcitriol, and free and total calcifediol. Serum vitamin D metabolites and markers of bone metabolism, immune function, and tumor burden are measured at the beginning of the dose escalation phase and at the beginning and end of the maintenance phase. Urine samples are collected at 4-week intervals for monitoring the Ca/Cr ratio and urine chemistry. The genotype of vitamin D binding protein is determined for each subject at the beginning of the dose escalation phase.
# [4] = test system: adult patients diagnosed with metastases in bone originating from breast or prostate cancer; test: Efficacy study in patients with metastatic bone disease receiving an antiresorptive agent (6-month, placebo-controlled); type: in vivo, human
# Description: Denosumab or zoledronic acid are administered according to the typical standard of care for each patient's condition. […] Samples are collected at monthly intervals for monitoring serum and urine levels of calcium, plasma levels of PTH and serum total 25-hydroxyvitamin D. Serum markers of tumor burden and bone metabolism, as well as cancer progression are assessed at 3-month intervals.
# [5] = test system: castration-resistant prostate cancer or estrogen-independent breast cancer metastatic to bone; test: Efficacy study in patients with metastatic bone disease for prevention of SREs (24-month, placebo-controlled); type: in vivo, human
# Description: Denosumab or zoledronic acid are administered according to the typical standard of care for each patient's condition. Patients are monitored for SREs, including by appropriate non-invasive imaging techniques, and serum markers of tumor burden and bone metabolism at 3-month intervals, and at monthly intervals for serum and urine calcium levels and plasma PTH. Cancer progression is monitored at quarterly intervals.
# [6] = test system: adult male patients with bone-metastasized castration-resistant prostate cancer; test: Efficacy study in prostate cancer patients treated with denosumab; conditions: for incidence of hypocalcemia and severity of SHPT and hypercalcemia: once stable dosing has been achieved, denosumab-treated
# Description: In a randomized, double-blind controlled study, patients are treated with denosumab (120 mg every four weeks). All denosumab-treated patients are randomized to receive daily oral treatment with one softgel capsule containing either 30 mcg of 25-hydroxyvitamin D3 in a modified release formulation or 400 IU of Vitamin D3 in an immediate release formulation. A total of 500 subjects participate in this study, all of whom are aged 18 years or older with histologically confirmed prostate cancer. […] All patients receive a radioisotope bone scan during screening with subsequent imaging by CT, MRI, or plain radiograph if needed to confirm bone metastases. All subjects receive calcium supplements (500 mg/day) and abstain from taking other Vitamin D supplements for 60 days before study start and continuing through study termination, and from significant sun exposure.
# All subjects begin daily dosing with softgel capsules at the start of denosumab treatment. Serum total 25-hydroxyvitamin D, PTH, calcium, phosphorus, N- and C-telopeptides, and P1NP, and urinary calcium, phosphorus and creatinine, are measured monthly. Radiographic bone scans are conducted every 6 months to detect skeletal metastases, with a second imaging modality (CT, MRI, or plain radiograph) used to confirm diagnosis of any metastases detected. Bone mineral density at four sites (total hip, femoral neck, ⅓ radius and lumbar spine) is determined at the start of the study and thereafter at yearly intervals. After 3 months, the daily dosage of 25-hydroxyvitamin D3 capsules is maintained unchanged in patients whose serum total 25-hydroxyvitamin D is between 50 and 90 ng/mL, and increased by one 30 mcg capsule in patients whose serum total 25-hydroxyvitamin D is below 50 ng/mL.
# [7] = test system: patients with bone metastases; conditions: patients with bone metastases treated with zoledronic acid; cited from earlier work
# [8] = with denosumab, versus denosumab and vitamin D3
# [9] = with denosumab, 24 months, compared to denosumab and Vitamin D3
# [10] = 6 months, with denosumab or zoledronic acid, compared to placebo
# [11] = with denosumab or zoledronic acid, compared to placebo combination
# [12] = 24 months, with denosumab or zoledronic acid, compared to placebo
compound,measurement,setting,value
C=C1CC[C@H](O)C/C1=C/C=C1\CCC[C@]2(C)[C@@H]([C@H](C)CCCC(C)(C)O)CC[C@@H]12 [25-hydroxyvitamin D3],serum levels of 25-hydroxyvitamin D3 after 24 months,"[1]; human, in vivo",higher and more consistent
same,side effects related to calcium and PTH metabolism,"[1]; human, in vivo",without causing unacceptable side effects
same,incidence of hypocalcemia and severity of secondary hyperparathyroidism,[1],markedly reduced
same,increases in bone mineral density,"[1]; with denosumab, 24 months, versus denosumab and Vitamin D3",larger increases
same,serum PTH levels after 24 months,[1]; [8],lower
same,serum levels of 25-hydroxyvitamin D3 after 24 months,"[2]; human, in vivo",higher and more consistent
same,side effects related to calcium and PTH metabolism,"[2]; human, in vivo",without causing unacceptable side effects
same,incidence of hypocalcemia and severity of secondary hyperparathyroidism,[2],markedly reduced
same,incidence of hypocalcemia,[2]; [9],significantly lower incidence
same,increases in bone mineral density,[2]; [9],larger increases
same,time to additional bone metastasis,[2]; [9],significantly delayed
same,serum PTH levels after 24 months,[2]; [8],lower
same,plasma PTH in the dose escalation phase,"[3]; 30 to 300 mcg daily, raised at four-week intervals, with denosumab or zoledronic acid",decreases
same,"change in serum 1,25-dihydroxyvitamin D","[3]; human, in vivo",significant increases
same,"change in serum 24,25-dihydroxyvitamin D","[3]; human, in vivo",significant increases
same,change in serum total 25-hydroxyvitamin D,"[3]; human, in vivo",significant increases
same,serum calcium in the dose escalation phase,"[3]; human, in vivo",gradually rises
same,plasma PTH,[4]; [10],decrease
same,risk of hypocalcemia,[4]; [10],reduced risk
same,serum calcium,[4]; [10],greater increase
same,side effects related to calcium and PTH metabolism,[4]; modified release formulation,without causing unacceptable side effects
same,cancer progression,"[4]; modified release formulation, 6 months",delaying cancer progression
same,time to additional bone metastasis,[4]; [11],increased delay
same,plasma PTH,[5]; [12],decrease
same,risk of hypocalcemia,[5]; [12],reduced risk
same,serum calcium,[5]; [12],greater increase
same,observed time to a post-treatment SRE,[5]; compared to placebo,significantly increasing
same,tumor progression,[5]; compared to placebo,inhibiting tumor progression
same,time to additional bone metastasis or SRE,[5]; [11],increased delay
same,side effects related to calcium and PTH metabolism,"[6]; modified release formulation, with denosumab",without causing unacceptable side effects
same,incidence of hypocalcemia and severity of SHPT and hypercalcemia,[6],markedly reduced
same,incidence of hypocalcemia,[6]; [9],significantly lower incidence
same,increases in bone mineral density,[6]; [9],larger increases
same,plasma PTH levels,[6]; [9],reduced
same,time to first post-treatment SRE,[6]; [9],significantly delayed
same,serum PTH levels after 24 months,[6]; [8],lower
same,serum levels of 25-hydroxyvitamin D3 after 24 months,[6]; [8],higher and more consistent
"C=C1CC[C@H](O)C/C1=C/C=C1\CCC[C@]2(C)[C@@H]([C@H](C)CCCC(C)C)CC[C@@H]12 [Vitamin D3, cholecalciferol, reference compound]",incidence of hypocalcemia and severity of secondary hyperparathyroidism,[1],occur more frequently
same,incidence of hypocalcemia and severity of secondary hyperparathyroidism,[2],occur more frequently
same,incidence of hypocalcemia and severity of SHPT and hypercalcemia,[6],more frequently
O=P(O)(O)C(O)(Cn1ccnc1)P(=O)(O)O [zoledronic acid],patients who developed hypocalcemia,[7],39%

# Reference: patent US20180085381A1, “Adjunctive Therapy With 25-Hydroxyvitamin D” (priority 2014, published 2018)
